tested on: K86415-001-R-J1-PDC complex spheroids, viability; assay: Anticancer human tumor K86415-001-R-J1-PDC patient-derived lung adenocarcinoma cell line growth inhibition [RAS]; conditions: second compound 0.316 µM; first compound 0.1 µM; hits give low values
In short: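 Multi-cell-type spheroids: tumor cells plus HUVEC endothelial cells and mesenchymal stem cells. RAS-pathway inhibitors were combined with targeted agents, each dosed in half-log steps down from clinical Cmax, or from 10 microM when Cmax was unknown.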
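Further: spheroids exposed to agents for seven days before readout.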

| Compound | viability, T/C |
| --- | --- |
| CC1(O)CCCC1n1c(=O)c(C(F)F)cc2cnc(NC3CCN(S(C)(=O)=O)CC3)nc21 (stereo unspecified) + C=CC(=O)N1CCN(c2nc(OCC3CCCN3C)nc3c(F)c(-c4nc(N)cc(C)c4C(F)(F)F)c(Cl)cc23)C(C)C1 | 11.6% |
| CCC(CC)c1cc(NC2CCC(N)C2)n2nccc2n1 (stereo unspecified) + C=CC(=O)N1CCN(c2nc(OCC3CCCN3C)nc3c(F)c(-c4nc(N)cc(C)c4C(F)(F)F)c(Cl)cc23)C(C)C1 | 14% |
| CCN1CCN(Cc2ccc(Nc3ncc(F)c(-c4cc(F)c5nc(C)n(C(C)C)c5c4)n3)nc2)CC1 + C=CC(=O)N1CCN(c2nc(OCC3CCCN3C)nc3c(F)c(-c4nc(N)cc(C)c4C(F)(F)F)c(Cl)cc23)C(C)C1 | 9.51% |
| Cc1nc(N2CCC3(CC2)COC(C)C3N)c(CO)nc1Sc1ccnc(N)c1Cl (stereo unspecified) + C=CC(=O)N1CCN(c2nc(OCC3CCCN3C)nc3c(F)c(-c4nc(N)cc(C)c4C(F)(F)F)c(Cl)cc23)C(C)C1 | 6.35% |
| NC1c2ccccc2OC12CCN(c1cnc3c(N4CCCc5ncccc54)n[nH]c3n1)CC2 (stereo unspecified) + C=CC(=O)N1CCN(c2nc(OCC3CCCN3C)nc3c(F)c(-c4nc(N)cc(C)c4C(F)(F)F)c(Cl)cc23)C(C)C1 | 6.11% |

same assay, conditions: second compound 0.316 µM; first compound 0.316 µM; hits give low values

| Compound | viability, T/C |
| --- | --- |
| CC1(O)CCCC1n1c(=O)c(C(F)F)cc2cnc(NC3CCN(S(C)(=O)=O)CC3)nc21 (stereo unspecified) + C=CC(=O)N1CCN(c2nc(OCC3CCCN3C)nc3c(F)c(-c4nc(N)cc(C)c4C(F)(F)F)c(Cl)cc23)C(C)C1 | 11.4% |
| CCC(CC)c1cc(NC2CCC(N)C2)n2nccc2n1 (stereo unspecified) + C=CC(=O)N1CCN(c2nc(OCC3CCCN3C)nc3c(F)c(-c4nc(N)cc(C)c4C(F)(F)F)c(Cl)cc23)C(C)C1 | 12% |
| CCN1CCN(Cc2ccc(Nc3ncc(F)c(-c4cc(F)c5nc(C)n(C(C)C)c5c4)n3)nc2)CC1 + C=CC(=O)N1CCN(c2nc(OCC3CCCN3C)nc3c(F)c(-c4nc(N)cc(C)c4C(F)(F)F)c(Cl)cc23)C(C)C1 | 12.2% |
| Cc1nc(N2CCC3(CC2)COC(C)C3N)c(CO)nc1Sc1ccnc(N)c1Cl (stereo unspecified) + C=CC(=O)N1CCN(c2nc(OCC3CCCN3C)nc3c(F)c(-c4nc(N)cc(C)c4C(F)(F)F)c(Cl)cc23)C(C)C1 | 4.21% |
| NC1c2ccccc2OC12CCN(c1cnc3c(N4CCCc5ncccc54)n[nH]c3n1)CC2 (stereo unspecified) + C=CC(=O)N1CCN(c2nc(OCC3CCCN3C)nc3c(F)c(-c4nc(N)cc(C)c4C(F)(F)F)c(Cl)cc23)C(C)C1 | 4.53% |

same assay, conditions: second compound 0.316 µM; first compound 1 µM; hits give low values

| Compound | viability, T/C |
| --- | --- |
| CC1(O)CCCC1n1c(=O)c(C(F)F)cc2cnc(NC3CCN(S(C)(=O)=O)CC3)nc21 (stereo unspecified) + C=CC(=O)N1CCN(c2nc(OCC3CCCN3C)nc3c(F)c(-c4nc(N)cc(C)c4C(F)(F)F)c(Cl)cc23)C(C)C1 | 11.4% |
| CCC(CC)c1cc(NC2CCC(N)C2)n2nccc2n1 (stereo unspecified) + C=CC(=O)N1CCN(c2nc(OCC3CCCN3C)nc3c(F)c(-c4nc(N)cc(C)c4C(F)(F)F)c(Cl)cc23)C(C)C1 | 17.7% |
| CCN1CCN(Cc2ccc(Nc3ncc(F)c(-c4cc(F)c5nc(C)n(C(C)C)c5c4)n3)nc2)CC1 + C=CC(=O)N1CCN(c2nc(OCC3CCCN3C)nc3c(F)c(-c4nc(N)cc(C)c4C(F)(F)F)c(Cl)cc23)C(C)C1 | 17.6% |
| Cc1nc(N2CCC3(CC2)COC(C)C3N)c(CO)nc1Sc1ccnc(N)c1Cl (stereo unspecified) + C=CC(=O)N1CCN(c2nc(OCC3CCCN3C)nc3c(F)c(-c4nc(N)cc(C)c4C(F)(F)F)c(Cl)cc23)C(C)C1 | 4.09% |
| NC1c2ccccc2OC12CCN(c1cnc3c(N4CCCc5ncccc54)n[nH]c3n1)CC2 (stereo unspecified) + C=CC(=O)N1CCN(c2nc(OCC3CCCN3C)nc3c(F)c(-c4nc(N)cc(C)c4C(F)(F)F)c(Cl)cc23)C(C)C1 | 4.12% |

same assay, conditions: second compound 0.316 µM; first compound 3.16 µM; hits give low values

| Compound | viability, T/C |
| --- | --- |
| CC1(O)CCCC1n1c(=O)c(C(F)F)cc2cnc(NC3CCN(S(C)(=O)=O)CC3)nc21 (stereo unspecified) + C=CC(=O)N1CCN(c2nc(OCC3CCCN3C)nc3c(F)c(-c4nc(N)cc(C)c4C(F)(F)F)c(Cl)cc23)C(C)C1 | 16.2% |
| CCC(CC)c1cc(NC2CCC(N)C2)n2nccc2n1 (stereo unspecified) + C=CC(=O)N1CCN(c2nc(OCC3CCCN3C)nc3c(F)c(-c4nc(N)cc(C)c4C(F)(F)F)c(Cl)cc23)C(C)C1 | 2.62% |
| Cc1nc(N2CCC3(CC2)COC(C)C3N)c(CO)nc1Sc1ccnc(N)c1Cl (stereo unspecified) + C=CC(=O)N1CCN(c2nc(OCC3CCCN3C)nc3c(F)c(-c4nc(N)cc(C)c4C(F)(F)F)c(Cl)cc23)C(C)C1 | 4.08% |
| NC1c2ccccc2OC12CCN(c1cnc3c(N4CCCc5ncccc54)n[nH]c3n1)CC2 (stereo unspecified) + C=CC(=O)N1CCN(c2nc(OCC3CCCN3C)nc3c(F)c(-c4nc(N)cc(C)c4C(F)(F)F)c(Cl)cc23)C(C)C1 | 6.47% |

same assay, conditions: second compound 0.316 µM; first compound 10 µM; hits give low values

| Compound | viability, T/C |
| --- | --- |
| CC1(O)CCCC1n1c(=O)c(C(F)F)cc2cnc(NC3CCN(S(C)(=O)=O)CC3)nc21 (stereo unspecified) + C=CC(=O)N1CCN(c2nc(OCC3CCCN3C)nc3c(F)c(-c4nc(N)cc(C)c4C(F)(F)F)c(Cl)cc23)C(C)C1 | 5.89% |
| CCC(CC)c1cc(NC2CCC(N)C2)n2nccc2n1 (stereo unspecified) + C=CC(=O)N1CCN(c2nc(OCC3CCCN3C)nc3c(F)c(-c4nc(N)cc(C)c4C(F)(F)F)c(Cl)cc23)C(C)C1 | 3.41% |
| Cc1nc(N2CCC3(CC2)COC(C)C3N)c(CO)nc1Sc1ccnc(N)c1Cl (stereo unspecified) + C=CC(=O)N1CCN(c2nc(OCC3CCCN3C)nc3c(F)c(-c4nc(N)cc(C)c4C(F)(F)F)c(Cl)cc23)C(C)C1 | 3.28% |
| NC1c2ccccc2OC12CCN(c1cnc3c(N4CCCc5ncccc54)n[nH]c3n1)CC2 (stereo unspecified) + C=CC(=O)N1CCN(c2nc(OCC3CCCN3C)nc3c(F)c(-c4nc(N)cc(C)c4C(F)(F)F)c(Cl)cc23)C(C)C1 | 5.1% |

same assay, conditions: second compound 1 µM; first compound 0.00316 µM; hits give low values

| Compound | viability, T/C |
| --- | --- |
| CCN1CCN(Cc2ccc(Nc3ncc(F)c(-c4cc(F)c5nc(C)n(C(C)C)c5c4)n3)nc2)CC1 + C=CC(=O)N1CCN(c2nc(OCC3CCCN3C)nc3c(F)c(-c4nc(N)cc(C)c4C(F)(F)F)c(Cl)cc23)C(C)C1 | 9.7% |

same assay, conditions: second compound 1 µM; first compound 0.01 µM; hits give low values

| Compound | viability, T/C |
| --- | --- |
| CCN1CCN(Cc2ccc(Nc3ncc(F)c(-c4cc(F)c5nc(C)n(C(C)C)c5c4)n3)nc2)CC1 + C=CC(=O)N1CCN(c2nc(OCC3CCCN3C)nc3c(F)c(-c4nc(N)cc(C)c4C(F)(F)F)c(Cl)cc23)C(C)C1 | 11.8% |

same assay, conditions: second compound 1 µM; first compound 0.0316 µM; hits give low values

| Compound | viability, T/C |
| --- | --- |
| CC1(O)CCCC1n1c(=O)c(C(F)F)cc2cnc(NC3CCN(S(C)(=O)=O)CC3)nc21 (stereo unspecified) + C=CC(=O)N1CCN(c2nc(OCC3CCCN3C)nc3c(F)c(-c4nc(N)cc(C)c4C(F)(F)F)c(Cl)cc23)C(C)C1 | 10.4% |

From PubChem BioAssay AID2060893 (Molecular Pharmacology Branch, DTP, NCI, 2025)
